Results taken from paper PMC8352719 (The Journal of General Physiology, 2021).
Where “and” joins values, the source holds several entries; their conditions need not be identical. Identical values can stand only once. Entries after “also recorded” stand apart in the source; their conditions may differ. Like-named read-outs stand apart in the source and are kept apart here.

How the values were obtained:
[1] = target: T1, BKα channels (human BK channel α-subunit, HEK-293T) (Homo sapiens, UniProt Q12791); conditions: for τ of decay phase on LOP application: perfusion limited; for V1/2: 10 μM LOP; for effective off-rate: IC50 × on-rate; for τrecovery: two-pulse protocol
[2] = target: BKα channels (Homo sapiens, UniProt Q12791); test: Kinetic model analysis
[3] = tested on: BK channel; conditions: ref Vouga et al., 2019; cited from earlier work
[4] = humans; therapeutic dose of 2–4 mg; conversion of 2 ng/ml; cited from earlier work
[5] = LOP levels with a therapeutic dose in humans; assay type: in vivo; conditions: therapeutic dose of 2–4 mg, assuming solvation in 1 liter of luminal fluid
[6] = target: T1, BKα channels (human BK channel α-subunit, HEK-293T); test: biochemical
[7] = target: T1, BKα channels (human BK channel α-subunit, HEK-293T); conditions: 30 µM LOP
[8] = target: BKα/γ1 channels (Homo sapiens, UniProt Q12791); test: Whole-cell recordings from HEK-293T cells overexpressing BKα/γ1 channels; assay type: cell-based
[9] = target: BKα/γ1 channels (human BK channel α- and γ1-subunits (LRRC26), HEK-293T) (Homo sapiens, UniProt Q12791); test: Macroscopic BK currents in excised inside-out patches; assay type: biochemical
[10] = IC50 (Hill fit of mean Gmax versus [LOP]), nominally 0 Ca2+
[11] = IC50 (Hill fit of mean V1/2 versus [LOP]), nominally 0 Ca2+
[12] = nominally 0 Ca2+, −100 to −60 mV
[13] = nominally 0 Ca2+, 30 μM LOP, mean of individual Boltzmann fits

Chain of BKα/γ1 channels (Q12791 whole entry): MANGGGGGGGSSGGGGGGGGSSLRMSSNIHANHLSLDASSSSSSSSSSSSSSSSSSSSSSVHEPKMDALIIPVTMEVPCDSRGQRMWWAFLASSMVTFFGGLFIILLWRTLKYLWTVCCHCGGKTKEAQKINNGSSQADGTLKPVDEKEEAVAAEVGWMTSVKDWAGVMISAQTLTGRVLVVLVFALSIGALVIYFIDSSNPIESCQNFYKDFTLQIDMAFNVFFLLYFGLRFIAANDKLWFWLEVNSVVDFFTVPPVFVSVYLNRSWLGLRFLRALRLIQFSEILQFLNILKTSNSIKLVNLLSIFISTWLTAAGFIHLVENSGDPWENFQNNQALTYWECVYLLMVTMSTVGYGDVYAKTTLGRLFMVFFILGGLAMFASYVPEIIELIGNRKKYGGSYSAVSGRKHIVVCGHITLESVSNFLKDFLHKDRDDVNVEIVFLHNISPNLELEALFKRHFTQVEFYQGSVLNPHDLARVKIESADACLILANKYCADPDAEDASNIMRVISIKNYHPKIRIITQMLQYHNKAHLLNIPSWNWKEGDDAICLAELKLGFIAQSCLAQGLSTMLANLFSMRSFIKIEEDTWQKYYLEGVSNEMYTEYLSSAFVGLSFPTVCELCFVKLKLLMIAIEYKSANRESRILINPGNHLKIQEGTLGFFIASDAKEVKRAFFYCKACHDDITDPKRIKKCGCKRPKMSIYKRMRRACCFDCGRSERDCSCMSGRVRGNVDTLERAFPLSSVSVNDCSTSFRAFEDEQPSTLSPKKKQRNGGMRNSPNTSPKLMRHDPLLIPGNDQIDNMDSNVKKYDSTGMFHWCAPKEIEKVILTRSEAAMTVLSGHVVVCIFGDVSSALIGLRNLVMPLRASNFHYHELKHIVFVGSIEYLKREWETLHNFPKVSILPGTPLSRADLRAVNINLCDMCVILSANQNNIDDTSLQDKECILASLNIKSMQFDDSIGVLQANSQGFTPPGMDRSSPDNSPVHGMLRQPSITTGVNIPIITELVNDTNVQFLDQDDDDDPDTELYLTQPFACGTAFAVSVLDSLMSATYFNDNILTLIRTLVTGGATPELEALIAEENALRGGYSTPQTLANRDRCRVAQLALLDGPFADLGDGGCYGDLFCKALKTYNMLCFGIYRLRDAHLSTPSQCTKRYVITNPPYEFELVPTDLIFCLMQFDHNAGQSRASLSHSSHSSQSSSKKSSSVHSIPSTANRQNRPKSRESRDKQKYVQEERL
Chain of BKα/γ1 channels (Q2I0M4 27-334 partner): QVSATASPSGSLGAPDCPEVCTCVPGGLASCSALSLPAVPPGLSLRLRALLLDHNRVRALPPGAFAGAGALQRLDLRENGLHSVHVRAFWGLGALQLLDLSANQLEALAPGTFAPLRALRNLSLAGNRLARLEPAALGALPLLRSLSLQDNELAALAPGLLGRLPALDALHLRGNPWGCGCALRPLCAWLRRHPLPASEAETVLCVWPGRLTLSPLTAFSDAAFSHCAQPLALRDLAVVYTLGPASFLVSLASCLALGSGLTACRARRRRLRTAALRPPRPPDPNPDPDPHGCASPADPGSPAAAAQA
T1 sequence (Q12791 whole entry, the tested form may be a part): as the sequence (Q12791 whole entry) above
Chain of BKα channels (Q12791 whole entry): as above
Chain of BKα/γ1 channels (human BK channel α- and γ1-subunits (LRRC26), HEK-293T) (Q12791 whole entry): as above
Chain of BKα/γ1 channels (human BK channel α- and γ1-subunits (LRRC26), HEK-293T) (Q2I0M4 27-334 partner): as the sequence (Q2I0M4 27-334 partner) above

CN(C)C(=O)C(CCN1CCC(O)(c2ccc(Cl)cc2)CC1)(c1ccccc1)c1ccccc1 [LOP, 4-[4-(4-chlorophenyl)-4-hydroxypiperidin-1-yl]-N,N-dimethyl-2,2-diphenylbutanamide]
mean fractional current ([1]; 3 µM LOP cytosolic with 3 µM extracellular LOP (pipette), 88 µM Ca2+): 0.361 ± 0.013 | mean fractional current ([1]; 3 µM LOP cytosolic without extracellular LOP, 88 µM Ca2+): 0.292 ± 0.033 | effect of extracellular LOP alone on BK current ([1]; 3 µM LOP in pipette solution, 88 µM Ca2+, several minutes): little apparent effect; also recorded: no apparent inhibition | decrease of normalized current ([1]; 3 µM LOP in the pipette, 0 LOP cytosolic, after 30 min of continuous recording): 5–10% | τ of decay phase on LOP application ([1]; 30 µM LOP cytosolic, 0 µM Ca2+, representative experiment): 8.5 s | τ of decay phase on LOP application ([1]; 30 µM LOP cytosolic, 88 µM Ca2+, representative experiment): 7.1 s | current recovery after washout of LOP (of predrug amplitude) ([1]; 30 µM LOP cytosolic, Fig. 2 A): ~100% | time constant of LOP reaching 90% of its maximal effect ([1]; 30 µM LOP to cytosolic side, 88 µM Ca2+, reflects solution switching): 7 ± 1 s | A (Eq. 4, IC50 versus voltage) ([1]; 88 µM Ca2+): 0.39 | min V1/2 (Hill fit of mean V1/2 versus [LOP]) ([1]; 88 µM Ca2+): −57 ± 8 mV | nH (Hill fit of mean Gmax versus [LOP]) ([1]; 88 µM Ca2+): 0.79 ± 0.06 | nH (Hill fit of mean V1/2 versus [LOP]) ([1]; 88 µM Ca2+): 0.94 ± 0.6 | y0 (final normalized current in pulse train) ([1]; 88 μM Ca2+, 3 µM LOP, 90 mV / -60 mV duration 2 / 2 ms): 0.50 ± 0.019 | y0 (final normalized current in pulse train) ([1]; 88 μM Ca2+, 3 µM LOP, 90 mV / -60 mV duration 2 / 8 ms): 0.74 ± 0.032 | V1/2 ([1]; 88 μM Ca2+, mean of individual Boltzmann fits): −54 ± 7 mV | Gmax ([1]; 88 μM Ca2+, 30 μM LOP, mean of individual Boltzmann fits): 0.0763 ± 0.008 | effective on-rate (slope of 1/τdecay versus [LOP]) ([1]; 88 µM Ca2+, 50 mV): 4.3 ± 0.4 × 10^7 M^−1 s^−1 and 4.3 × 10^7 ± 0.4 × 10^7 M^−1 s^−1 | effective off-rate ([1]; 88 µM Ca2+, 50 mV): ~40 s⁻¹ | effective on-rate (slope of 1/τdecay versus [LOP]) ([1]; 88 µM Ca2+, 90 mV): 5.8 ± 0.6 × 10^7 M^−1 s^−1 and 5.8 × 10^7 ± 0.6 × 10^7 M^−1 s^−1 | effective off-rate ([1]; 88 µM Ca2+, 90 mV): 41 s⁻¹ and 40 s⁻¹ | nominal effective valence of on-rates (Eq. 5) ([1]; 88 µM Ca2+, on-rates at 50 and 90 mV): 0.21 ± 0.11 e0 | τrecovery ([1]; 88 µM Ca2+, −80 mV, 3 µM LOP): 3.87 ms | τrecovery ([1]; 88 µM Ca2+, −80 mV, 10 µM LOP): 4.14 ms | mean tail current τ ([1]; 88 µM Ca2+, −80 mV, 3 µM LOP): 1.82 ± 0.14 ms | mean tail current τ ([1]; 88 µM Ca2+, −80 mV, 10 µM LOP): 2.05 ± 0.6 ms | τrecovery ([1]; 88 µM Ca2+, −120 mV, 3 µM LOP): 2.04 ms | τrecovery ([1]; 88 µM Ca2+, −120 mV, 10 µM LOP): 2.11 ms | mean tail current τ ([1]; 88 µM Ca2+, −120 mV, 3 µM LOP): 0.71 ± 0.06 ms | mean tail current τ ([1]; 88 µM Ca2+, −120 mV, 10 µM LOP): 0.78 ± 0.07 ms | current recovery following washout of cytosolic LOP ([1]; 3 or 30 µM cytosolic LOP with 3 µM extracellular LOP, 88 µM Ca2+, Fig. 2 B): > 90% | A (Eq. 4, IC50 versus voltage) ([1]; nominally 0 Ca2+): 5,500 | mean zδ value of G-V relations versus [LOP] ([1]; nominally 0 Ca2+): 1.1 e0 | min Gmax (Hill fit of mean Gmax versus [LOP]) ([1]; nominally 0 Ca2+): 0.16 ± 0.04 | min V1/2 (Hill fit of mean V1/2 versus [LOP]) ([1]; nominally 0 Ca2+): 162 ± 16 mV | nH (Hill fit of mean Gmax versus [LOP]) ([1]; nominally 0 Ca2+): 1.2 ± 0.13 | nH (Hill fit of mean V1/2 versus [LOP]) ([1]; nominally 0 Ca2+): 0.65 ± 1.1 | V1/2 ([1]; nominally 0 Ca2+, mean of individual Boltzmann fits): 165 ± 5 mV | time to complete reversal of inhibition upon washout ([1]; switch from 30 to 0 µM LOP, cytosolic side): ≤ 1 min | τ of wash phase ([1]; washout of 30 µM LOP, 0 µM Ca2+, representative experiment): 35 s | apparent closing rate (1/τclosing) ([1]; −80 mV, 3 µM LOP): 684 ± 57 s⁻¹ | tail current τ (fit to mean trace) ([1]; −80 mV, 3 µM LOP): 1.99 ms | tail current τ (representative trace) ([1]; −80 mV, 3 µM LOP): 2.25 ms | tail current τ (fit to mean trace) ([1]; −80 mV, 10 µM LOP): 1.77 ms | tail current τ (representative trace) ([1]; −80 mV, 10 µM LOP): 1.73 ms | apparent closing rate (1/τclosing) ([1]; −120 mV, 3 µM LOP): 1,460 ± 69 s^−1 | tail current τ (fit to mean trace) ([1]; −120 mV, 3 µM LOP): 0.82 ms | tail current τ (representative trace) ([1]; −120 mV, 3 µM LOP): 0.876 ms | tail current τ (fit to mean trace) ([1]; −120 mV, 10 µM LOP): 0.85 ms | tail current τ (representative trace) ([1]; −120 mV, 10 µM LOP): 0.694 ms | KLOP in the open state [2]: 1.6 µM | KLOP (dissociation constant for LOP binding) ([2]; Sch 2, closed state, global fit, nominally 0 and 88 μM Ca2+): 53.4 µM | H (allosteric constant, LOP binding vs closed-open equilibrium) ([2]; Sch 2, fold difference in LOP affinity between closed and open states): 34.4 | W (coupling between LOP binding and CSD activation) ([2]; Sch 5): 1.09 | inhibition of BK channel–mediated thallium flux [3]: potent inhibitor | plasma levels of LOP [4]: ~4 nM | estimated concentration of LOP in the intestinal lumen [5]: ≥ 8 µM | IC50 ([6]; IC50 (Hill fit of mean Gmax versus [LOP]), 88 µM Ca2+): 1060 nM and 1100 nM | IC50 [6, 10]: 1400 nM and 1410 nM | IC50 ([6]; IC50 (Hill fit of mean V1/2 versus [LOP]), 88 µM Ca2+): 310 ± 300 nM | IC50 [6, 11]: 550 nM | IC50 ([6]; IC50(∞), asymptotic IC50 at very depolarized voltages (Eq. 4), 88 µM Ca2+): 870 nM | IC50 ([6]; IC50(∞), asymptotic IC50 at very depolarized voltages (Eq. 4), nominally 0 Ca2+): 2200 nM | IC50 ([6]; IC50, 88 μM Ca2+, Vm 50 mV, Hill fit of normalized G vs [LOP]): ~940 nM | IC50 ([6]; extrapolated IC50, 88 µM Ca2+, 90 mV): 710 nM | IC50 ([6]; half-maximal inhibitory concentration (IC50) for open channels, voltage-activated BK current, wide range of cytosolic [Ca2+]): ~1000 nM | mean open times ([7]; voltages up to 100 mV, nominally 0 or 88 µM Ca2+): ≤ 0.44 ms | V1/2 of mean open time (Boltzmann fit) ([7]; 88 µM Ca2+): −83 mV | min. open time (Boltzmann fit) ([7]; 88 µM Ca2+): 0.26 ms | zδ of mean open time (Boltzmann fit) ([7]; 88 µM Ca2+): 1.6 e0 | effective inhibition rate ([7]; 88 µM Ca2+, 1/0.43 ms): 2,326 s^−1 | mean open time ([7]; 88 µM Ca2+, +50 mV): 0.37 ± 0.044 ms | maximum open time (Boltzmann fit) ([7]; 88 µM Ca2+, depolarized voltages): 0.43 ± 0.03 ms and 0.43 ms | mean open time ([7]; 88 µM Ca2+, −50 mV): 0.44 ± 0.026 ms | Po ([7]; 88 µM Ca2+, −90 mV): 0.00728 ± 0.0010 | inhibition of Po ([7]; 88 µM Ca2+, −90 mV): 2.7 fold | mean open time ([7]; 88 µM Ca2+, −90 mV): 0.32 ± 0.03 ms | Po ([7]; 88 µM Ca2+, −160 to −130 mV): 0.0037 ± 0.0003 | mean open time ([7]; 88 µM Ca2+, −160 to −130 mV): 0.26 ± 0.004 ms | effective inhibition rate ([7]; nominally 0 Ca2+, 1/0.39 ms): 2,564 s^−1 | Po ([7]; nominally 0 Ca2+, +60 mV): 1.3 ± 0.6 × 10^−4 | inhibition of Po ([7]; nominally 0 Ca2+, +60 mV): 3.7 fold | mean open time ([7]; nominally 0 Ca2+, +60 mV): 0.32 ± 0.03 ms | Po ([7]; nominally 0 Ca2+, +80 mV): 5.4 ± 1.3 × 10^−4 | inhibition of Po ([7]; nominally 0 Ca2+, +80 mV): 3.5 fold | mean open time ([7]; nominally 0 Ca2+, +80 mV): 0.38 ± 0.008 ms | extrapolated maximum open time (Boltzmann fit) ([7]; nominally 0 Ca2+, depolarized voltages): 0.39 ± 0.04 ms | mean Po [7, 12]: 1.7 ± 0.2 × 10^−6 | mean open time [7, 12]: 0.18 ± 0.009 ms | current recovery after washout of LOP (of predrug amplitude) ([8]; 10 µM LOP, extracellular bath): ~80% | mean fractional whole-cell current at equilibrium ([8]; bath application of 10 µM LOP, pulses to 100 mV): 0.39 ± 0.06 | slowing versus cytosolic application to excised inside-out patches ([8]; extracellular bath-applied LOP): ~20 times | mean time constant for inhibition to reach equilibrium ([8]; extracellular bath-applied LOP (10 µM)): 2.8 ± 0.4 min | τ of exponential fit (a) ([8]; representative experiment Fig. 5 A, first application of 10 µM LOP at t = 5 min): 1.9 min | τ of exponential fit (e) ([8]; representative experiment Fig. 5 A, washout at t = 25 min): 51 s | IC50 [9, 10]: 2130 ± 300 nM | IC50 [9, 11]: 1500 ± 1700 nM | IC50 ([9]; IC50, nominally 0 Ca2+, Vm 0 mV, Hill fit of normalized G vs [LOP]): 11300 ± 3500 nM | A (Eq. 4, IC50 versus voltage) ([9]; nominally 0 Ca2+): 7.6 | mean zδ value of G-V relations versus [LOP] ([9]; nominally 0 Ca2+): 1.2 e0 | min V1/2 (Hill fit of mean V1/2 versus [LOP]) ([9]; nominally 0 Ca2+): −15 ± 11 mV | nH (Hill fit of mean Gmax versus [LOP]) ([9]; nominally 0 Ca2+): 0.74 ± 0.06 | nH (Hill fit of mean V1/2 versus [LOP]) ([9]; nominally 0 Ca2+): 0.72 ± 0.4 | Gmax [9, 13]: 0.12 ± 0.04 | V1/2 [9, 13]: −11 ± 5 mV

CC[N+](CC)(CC)CC [TEA]
fractional current not blocked ([8]; 1 mM extracellular TEA): 0.082 ± 0.0007 | time constant to reach equilibrium ([8]; bath application of 1 mM TEA): 8.4 ± 1 s | τ of exponential fit (c) ([8]; representative experiment Fig. 5 A, back to 0 LOP/0 TEA at t = 17 min): 13.2 s | τ of exponential fit (b) ([8]; representative experiment Fig. 5 A, switch to 1 mM TEA at t = 15 min): 7.3 s
